Structures are written as SMILES.

The data set in a line: Solubility of compound in safety solvent. The data set is classed as physicochemical. To be noted: for Solubility in CHN: solvent cyclohexanone (CHN); for Solubility in PGME: solvent propylene glycol monomethyl ether (PGME). The method, then:
(1) Solubility of Compound in Safety Solvent
The compounds obtained in Synthesis Examples 1 to 6 and Synthesis 1 to 4 were evaluated for the solubility in propylene glycol monomethyl ether (PGME) and cyclohexanone (CHN).
B: 1.0 wt %≦dissolved amount<4.0 wt %
C: dissolved amount<1.0 wt %

Turning to `Oc1cc(O)c2cc1C(c1ccc(-c3ccccc3)cc1)c1cc(c(O)cc1O)C(c1ccc(-c3ccccc3)cc1)c1cc(c(O)cc1O)C(c1ccc(-c3ccccc3)cc1)c1cc(c(O)cc1O)C2c1ccc(-c2ccccc2)cc1` (centres unmarked) [CR-3A], the “Solubility in CHN” value was “A (4.0 wt %≦amount)” and the “Solubility in PGME” value is “C (dissolved amount<1.0 wt %)”.

Turning to `CC(C)Cc1ccc(C2c3cc(c(O)cc3O)C(c3ccc(CC(C)C)cc3)c3cc(c(O)cc3O)C(c3ccc(CC(C)C)cc3)c3cc(c(O)cc3O)C(c3ccc(CC(C)C)cc3)c3cc2c(O)cc3O)cc1` (centres unmarked) [CR-2A], the “Solubility in CHN” value was “B (1.0 wt %≦dissolved amount<4.0 wt %)” and the “Solubility in PGME” value is “C (dissolved amount<1.0 wt %)”.

With `CC(C)c1ccc(C2c3cc(c(O)cc3O)C(c3ccc(C(C)C)cc3)c3cc(c(O)cc3O)C(c3ccc(C(C)C)cc3)c3cc(c(O)cc3O)C(c3ccc(C(C)C)cc3)c3cc2c(O)cc3O)cc1` (centres unmarked) [CR-1A], the “Solubility in CHN” value is “A (4.0 wt %≦amount)” and the “Solubility in PGME” value is “B (1.0 wt %≦dissolved amount<4.0 wt %)”.

As to `Oc1cc(O)c2cc1C(c1ccc(C3CCCCC3)cc1)c1cc(c(O)cc1O)C(c1ccc(C3CCCCC3)cc1)c1cc(c(O)cc1O)C(c1ccc(C3CCCCC3)cc1)c1cc(c(O)cc1O)C2c1ccc(C2CCCCC2)cc1` (centres unmarked) [CR-4A], the “Solubility in CHN” value is “A (4.0 wt %≦amount)” and the “Solubility in PGME” value is “B (1.0 wt %≦dissolved amount<4.0 wt %)”.
